Laboratory results as given in ChEMBL document CHEMBL5226321, “Ivermectin: A Promising Therapeutic for Fighting Malaria. Current Status and Perspective” (J Med Chem, 2021).

What was measured:
[1] = test system: Culex pipiens; assay: Insecticidal in Culex pipiens larvae measured after 48 hrs; format: functional
[2] = test system: Aedes aegypti; assay: Insecticidal in Aedes aegypti larvae measured after 48 hrs; format: functional
[3] = test system: Aedes aegypti; assay: Insecticidal in Aedes aegypti assessed as mortality rate fed with blood of compound treated mouse at 83 mg/kg, sc before 12 hrs and observed after 36 hrs relative to control; format: functional, organism-based
[4] = test system: Culex quinquefasciatus; assay: Insecticidal in Culex quinquefasciatus assessed as mortality rate fed with blood of compound treated mouse at […], sc before 12 hrs and observed after 36 hrs relative to control; format: functional, organism-based
[5] = test system: Anopheles stephensi; assay: Insecticidal in Anopheles stephensi assessed as mortality rate fed with blood of compound treated rabbits at 0.34 mg/kg, sc 4 to 6 days post-injection relative to control; format: functional, organism-based; details: time 4-6 day
[6] = test system: Aedes aegypti; assay: Insecticidal in Aedes aegypti assessed as mortality rate membrane-fed with compound treated human blood at 10 to 100 microg/mL observed within 7 days relative to control; format: functional, organism-based; details: dose 10-100 µg/ml, time 7.0 day
[7] = test system: Aedes albopictus; assay: Insecticidal in Aedes albopictus assessed as mortality rate membrane-fed with compound treated human blood at 10 to 100 microg/mL observed within 7 days relative to control; format: functional, organism-based; details: dose 10-100 µg/ml, time 7.0 day
[8] = test system: Anopheles gambiae; assay: Insecticidal in Anopheles gambiae assessed as mean survival fed with blood of compound treated human at 200 microg/kg relative to control; format: functional, organism-based; details: dose 200.0 µg/kg
[9] = test system: Anopheles sp.; assay: Insecticidal in Anopheles sp. assessed as mortality rate fed with blood of compound treated human at 200 microg/kg administered once caught on day 2 after mass drug administration observed within 5 days relative to control; format: functional, organism-based; details: dose 200.0 µg/kg, time 5.0 day
[10] = test system: Anopheles gambiae; assay: Insecticidal in Anopheles gambiae assessed as mortality fed with compound treated bovine blood at 600 microg/kg observed for 10 days; format: functional, organism-based; details: dose 600.0 µg/kg, time 10.0 day
[11] = test system: Anopheles sp.; assay: Insecticidal in Anopheles sp. assessed as reduction in survival rate fed with compound treated human blood at 400 microg/kg observed in 48 hrs relative to control; format: functional, organism-based; details: dose 400.0 µg/kg
[12] = test system: Anopheles arabiensis; assay: Insecticidal in Anopheles arabiensis assessed as lethal concentration membrane-fed with compound treated bovine blood; format: functional
[13] = test system: Anopheles sp.; assay: Insecticidal in Anopheles sp. assessed as mortality rate membrane-fed with blood of compound treated mouse at 600 microg/kg observed within 6 days relative to control; format: functional, organism-based; details: dose 600.0 µg/kg, time 6.0 day
[14] = test system: Anopheles darlingi; assay: Insecticidal in Anopheles darlingi infected with Plasmodium vivax assessed as lethal concentration fed with compound treated human blood observed for 7 days; format: functional, organism-based; details: time 7.0 day
[15] = test system: Plasmodium vivax; assay: Antimalarial activity against Plasmodium vivax assessed as reduction in […] in Anopheles sp. mosquito fed with blood containing plasma isolated from compound treated human observed after 4 days relative to control; format: functional, organism-based; details: time 4.0 day, dose or concentration not given here
[16] = test system: Plasmodium vivax; assay: Antimalarial activity against Plasmodium vivax assessed as reduction in […] in Anopheles darlingi mosquito fed with blood containing plasma isolated from compound treated human observed after 4 days relative to control; format: functional, organism-based; details: time 4.0 day, dose or concentration not given here
[17] = test system: Anopheles sp.; assay: Insecticidal in Anopheles sp. infected with Plasmodium vivax assessed as mortality rate midgut fed with blood isolated from compound treated parasite-infected human observed after 7 days relative to control; format: functional, organism-based; details: time 7.0 day
[18] = test system: Anopheles sp.; assay: Insecticidal in Anopheles sp. infected with Plasmodium vivax assessed as mortality rate fed with blood isolated from compound treated human at 200 microg/kg observed for 5 days; format: functional, organism-based; details: dose 200.0 µg/kg, time 5.0 day
[19] = test system: Anopheles stephensi; assay: Insecticidal in Anopheles stephensi assessed as mortality rate with blood of compound treated mouse at 82 microg/kg observed within 36 hrs relative to control; format: functional, organism-based; details: dose 82.0 µg/kg
[20] = test system: Anopheles sp.; assay: Insecticidal in Anopheles sp. assessed as mortality fed with compound treated human blood at 400 microg/kg in the presence of 6 mg/kg diethylcarbamazine citrate died in 9 days relative to control; format: functional, organism-based; details: dose 400.0 µg/kg, time 9.0 day
[21] = test system: Anopheles minimus; assay: In vitro Insecticidal in Anopheles minimus assessed as lethality membrane-fed with compound treated human blood at 400 microg/kg per day in presence of combination of 120 mg dihydroartemisinin, 960 mg piperaquine and 30 mg primaquine observed after 7 days; format: functional, organism-based; details: dose 400.0 µg/kg, time 7.0 day
[22] = test system: Anopheles arabiensis; assay: Insecticidal in Anopheles arabiensis assessed as mean survival fed with blood of compound treated human at 12 mg, administered as a single dose observed at 2 days post treatment; format: functional, organism-based; details: time 2.0 day
[23] = test system: Anopheles sp.; assay: Insecticidal in Anopheles sp. infected with Plasmodium falciparum gametocytes assessed as mortality fed with compound treated bovine blood at 200 microg/kg observed within 2.87 days feeding at 2 days post treatment relative to control; format: functional, organism-based; details: dose 200.0 µg/kg, time 2.87 day
[24] = test system: Anopheles sp.; assay: Insecticidal in Anopheles sp. assessed as mortality fed with compound treated pig blood at 600 microg/kg observed within 2 to 4 days feeding upto 8 days after drug administration relative to control; format: functional, organism-based; details: dose 600.0 µg/kg, time 2-4 day
[25] = test system: Anopheles sp.; assay: Insecticidal in Anopheles sp. infected with Plasmodium falciparum gametocytes assessed as reduction in survival fed with compound treated bovine blood at 200 microg/kg feeding at 2 days after injection relative to control; format: functional, organism-based; details: dose 200.0 µg/kg
[26] = test system: Anopheles sp.; assay: Insecticidal in Anopheles sp. infected with Plasmodium falciparum gametocytes assessed as reduction in survival fed with compound treated bovine blood at 200 microg/kg feeding at 28 days after injection relative to control; format: functional, organism-based; details: dose 200.0 µg/kg
[27] = test system: Anopheles sp.; assay: Insecticidal in Anopheles sp. infected with Plasmodium falciparum gametocytes assessed as reduction in fecundity fed with compound treated bovine blood at 200 microg/kg feeding at 21 days after injection relative to control; format: functional, organism-based; parameters: scale not given: the % may be the effect or the level left; details: dose 200.0 µg/kg
[28] = test system: Anopheles sp.; assay: Insecticidal in Anopheles sp. assessed as lethal concentration membrane-fed with compound treated pig blood; format: functional
[29] = test system: Anopheles sp.; assay: Insecticidal in Anopheles sp. assessed as mean plasma concentration fed with compound treated pig blood administered as a single dose at 600 microg/kg at 22 day post treatment; format: functional, organism-based; details: dose 600.0 µg/kg
[30] = test system: Anopheles sp.; assay: Insecticidal in Anopheles sp. assessed as lethal concentration fed with compound treated human blood administered as a single dose at 10 microg/ml fed at 4 hrs post treatment; format: functional, organism-based; details: dose 10.0 µg/ml
[31] = test system: Anopheles sp.; assay: Insecticidal in Anopheles sp. assessed as number of eggs per female fed with compound treated human blood administered as a single dose at 10 microg/ml fed at 4 hrs post treatment; format: functional, organism-based; details: dose 10.0 µg/ml
[32] = test system: Anopheles arabiensis; assay: Insecticidal in Anopheles arabiensis assessed as reduction in number of eggs fed with compound treated bovine blood at 200 microg/kg relative to control; format: functional, organism-based; parameters: scale not given: the % may be the effect or the level left; details: dose 200.0 µg/kg
[33] = test system: Plasmodium berghei; assay: In vivo antimalarial activity against blood stage Plasmodium berghei transfected with GFP infected in mouse assessed as supression of parasitemia at 0.5 mg/kg for 3 days relative to control; format: functional, organism-based; details: time 3.0 day
[34] = test system: Plasmodium berghei; assay: In vivo antimalarial activity against blood stage Plasmodium berghei transfected with GFP infected in mouse assessed as increase in mouse survival days at 0.5 mg/kg for 3 days; format: functional, organism-based; details: time 3.0 day
[35] = test system: Plasmodium berghei; assay: In vivo antimalarial activity against liver stage Plasmodium berghei infected in mouse assessed as inhibition of liver infection at 10 mg/kg measured 44 to 46 hrs post-infection by bioluminescence assay relative to control; format: functional, organism-based; details: time 44-46 hrs
[36] = test system: Plasmodium berghei; assay: In vivo antimalarial activity against liver stage Plasmodium berghei infected in mouse assessed as increase in mouse survival days at 10 mg/kg; format: functional, organism-based

IVERMECTIN showed an LC50 [1] of 3.94 ppb, an LC50 [2] of 23.4 ppb and a mortality [3] of 60%. It also gave a mortality [4] of 50%, a mortality [5] of 93% and a mortality [6] of 100%. It also gave a mortality [7] of 100%, a Survival [8] of 2.3 days and a mortality [9] of 80%. It also gave a mortality [10] of 90%, a Survival [11] of 31% and an LC50 [12] of 7.79 ppb. It also gave a mortality [13] of 44%, an LC5 [14] of 14.8 ng/mL and an LC25 [14] of 0.0278 µg/mL. For the same sequence, the LC50 [14] was 0.0432 µg/mL, the inhibition [15] was 99.9% and the inhibition [16] was 99.9%. For the same sequence, the mortality [17] was 97.1%, the mortality [18] was 50% and the mortality [19] was 100%. It also gave a mortality [20] of 100%, an LC50 [21] of 0.0147 µg/mL and a Survival [22] of 2.1 days. The mortality [23] was 100%, the mortality [24] was 100% and the Survival [25] was 86%. The Survival [26] was 23%, the Activity [27] was 33% and the LC50 [28] was 0.0178 µg/mL. It also gave a Cp [29] of 1.4 ng/mL, an LC5 [30] of 18.3 ng/mL and an Activity [31] of 22.4. For the same sequence, the Activity [32] was 82%, the Activity [33] was 40% and the Survival [34] was 23 days. It also gave an inhibition [35] of 80% and a Survival [36] of 10 days.
